The values below come from publication PMC6407204, “Oral administration of the cannabigerol derivative VCE-003.2 promotes subventricular zone neurogenesis and protects against mutant huntingtin-induced neurodegeneration” (Translational Neurodegeneration, 2019).

A short description of one series: in vitro. As to conditions: human, microsomes, pH 7.4. The protocol:
The final incubation volume was 25 μL. […] The reactions were stopped by the addition of 50 μL methanol containing internal standard at the appropriate time points. The incubation plates were centrifuged at 2500 rpm for 20 min at 4 °C to precipitate the protein. Following protein precipitation, the sample supernatants were analyzed using LC-MS/MS. From a plot of ln peak area ratio (compound peak area/internal standard peak area) against time, the gradient of the line was determined. Subsequently, half-life and intrinsic clearance was calculated using the equations below: Elimination rate constant (k) = (− gradient).

A further series deals with murine models of HD. Set-up: method as in PMID 25252936. As to conditions: 3-nitropropionic acid injection model and R6/2 model, via PPARγ; cited from earlier work.
The next series has as its system S. typhimurium TA98. In words: AMES reverse mutation assay, TA98. As to conditions: TA98, S9 yes. It counts as cell-based. The protocol:
(§1) Supplementary file 40035_2019_148_MOESM4_ESM.pdf: Additional file 4: AMES Data Summary. AMES Experimental Procedure. Approximately ten million bacteria are exposed in triplicate to VCE-003-.2 (7.8, 15.6, 31.3, 62.5, 125 and 250 μg/ml), a negative control (vehicle) and a positive control for 90 min in medium containing a low concentration of histidine (sufficient for about 2 doublings). The cultures were then diluted into indicator medium lacking histidine and dispensed into 48 wells of a 384 well plate (micro-plate format, MPF). The plate was incubated for 48 h at 37 °C, and the number of wells showing growth were counted and compared to the vehicle control. An increase in the number of colonies of at least two-fold over baseline (mean + SD of the vehicle control) and a dose response indicates a positive response. […] Where indicated, S9 fraction from the livers of Aroclor 1254-treated rats was included in the incubation at a final concentration of 4.5%. An NADPH-regenerating system is also included to ensure a steady supply of reducing equivalents. The strains used in this study were S. typhimurium TA98 (hisD3052, rfa, uvrB/pKM10 for detection of frame-shift mutations) and S. typhimurium TA100 ([…], rfa, uvrB/pKM101 for detection of base-pair substitutions). VCE-003.2 was assessed for its mutagenic potential in the AMES reverse mutation assay. This test was performed in the absence and presence of S9 metabolic activation. […] The positive controls all behaved as expected. (PDF 568 kb)

For a further series, the system named is S. typhimurium TA100. In words: AMES reverse mutation assay, TA100. It counts as cell-based. To be noted: TA100, S9 yes. The procedure:
as §1

Structures are written as SMILES.

By half-life is commonly meant the time needed for the level to fall by half in the phase considered. A lower half-life goes with fast loss. One may read the microsomal CLint as the rate of metabolic loss divided by the concentration. A lower microsomal CLint goes with greater metabolic stability.

In the series “in vitro”, `CCCCCc1cc(O)c(C/C=C(\C)CCC=C(C)C)c(O)c1` [CBG, Cannabigerol] gave a half-life of 13.4 min and a microsomal CLint of 103 µL/min/mg. Also, the “motor symptoms, neuroinflammation and neurodegeneration in HD models” value with murine models of HD was “alleviates motor symptoms, neuroinflammation and neurodegeneration”.

In the case of `COc1ccc2c(c1)[C@]13CCCC[C@@H]1[C@H](C2)N(C)CC3` [Dextrom Etorphan, dextromethorphan], in the series “in vitro”, the half-life was 58.1 min and the intrinsic metabolic clearance (microsomal CLint) was 23.9 µL/min/mg.

Turning to `Nc1cccc2cc3ccccc3cc12` [aminoanthracene, reference compound], the “AMES Result” value in the series on S. typhimurium TA98 and in the series with S. typhimurium TA100 was “Positive” each time.
